Results published in patent US10131652B2, “Pyrimidinyloxy benzene derivatives as herbicides” (E. I. DU PONT DE NEMOURS AND COMPANY, priority 2014, dated 2018).

Legend:
Assay type in all cases: in vivo
corn (Zea mays) = assay: Test D pre-/postemergence plant response; details: Postemergence; for Corn plant response rating: scale 0 to 100 (0 no effect, 100 complete control)
Summary of the method: (§1)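 Test chemicals were formulated in a non-phytotoxic solvent mixture containing surfactant and applied either preemergence to seeds in loam–sand soil or postemergence to plants 2 to 18 cm tall (1- to 4-leaf stage). Response was rated visually against controls after 13 to 15 days, from 0 (none) to 100 (complete control).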

[1] = test system: lambsquarters (Chenopodium album); assay: Test D pre-/postemergence plant response; details: Postemergence
Summary of the method: as §1

[2] = test system: pigweed (Amaranthus retroflexus); assay: Test D pre-/postemergence plant response; details: Postemergence
Summary of the method: as §1

[3] = test system: morningglory (Ipomoea coccinea); assay: Test D pre-/postemergence plant response; details: Postemergence
Summary of the method: as §1

[4] = test system: waterhemp (common waterhemp, Amaranthus rudis); assay: Test D pre-/postemergence plant response; details: Postemergence
Summary of the method: as §1

[5] = test system: giant foxtail (Setaria faberii); assay: Test D pre-/postemergence plant response; details: Postemergence; for Foxtail, Giant plant response rating: scale 0 to 100 (0 no effect, 100 complete control)
Summary of the method: as §1

soybean (Glycine max) = assay: Test D pre-/postemergence plant response; details: Postemergence
Summary of the method: as §1

[6] = test system: large (Lg) crabgrass (Digitaria sanguinalis); assay: Test D pre-/postemergence plant response; details: Postemergence; for Crabgrass, Large plant response rating: scale 0 to 100 (0 no effect, 100 complete control)
Summary of the method: as §1

[7] = test system: velvetleaf (Abutilon theophrasti); assay: Test D pre-/postemergence plant response; details: Postemergence
Summary of the method: as §1

[8] = test system: Italian ryegrass (Lolium multiflorum); assay: Test D pre-/postemergence plant response; details: Postemergence
Summary of the method: as §1

[9] = test system: blackgrass (Alopecurus myosuroides); assay: Test D pre-/postemergence plant response; details: Postemergence; for Blackgrass plant response rating: scale 0 to 100 (0 no effect, 100 complete control)
Summary of the method: as §1

[10] = test system: barnyardgrass (Echinochloa crus-galli); assay: Test D pre-/postemergence plant response; details: Postemergence; for Barnyardgrass plant response rating: scale 0 to 100 (0 no effect, 100 complete control)
Summary of the method: as §1

kochia (Kochia scoparia) = assay: Test B pre-/postemergence plant response
Summary of the method: (§2)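 Visual injury scores on a 0–100 scale (100 = complete control) relative to untreated plants, taken about 10 days post-treatment in greenhouse. Treatments were a directed preemergence soil spray and a postemergence spray at one- to two-leaf stage, using surfactant-containing solvent formulation.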

[11] = test system: ragweed (common ragweed, Ambrosia elatior); assay: Test B pre-/postemergence plant response
Summary of the method: as §2

[12] = test system: Italian ryegrass (Lolium multiflorum); assay: Test B pre-/postemergence plant response
Summary of the method: as §2

[13] = 62 g ai/ha, scale 0 to 100, 0 no effect, 100 complete control
[14] = 31 g ai/ha, scale 0 to 100 (0 no effect, 100 complete control)
[15] = 125 g ai/ha, postemergence, 0 to 100 scale, 0 no effect, 100 complete control
[16] = Postemergence, 500 g ai/ha, 0 to 100 scale (0 no effect, 100 complete control)
[17] = Preemergence, 125 g ai/ha, 0 to 100 scale (0 no effect, 100 complete control)
[18] = Preemergence, 500 g ai/ha, 0 to 100 scale where 0 is no effect and 100 is complete control

FC(F)(F)c1cc(-c2c(I)cccc2Oc2ncc(Cl)cn2)no1 [Compound 156]
35: Lambsquarters plant response rating [1, 14] | Plant response rating, Foxtail, Giant [5, 13]
5: Corn plant response rating (corn (Zea mays); 16 g ai/ha) | Corn plant response rating (corn (Zea mays); 31 g ai/ha) | Plant response rating, Corn (corn (Zea mays); [13]) | Plant response rating (scale 0 to 100), Morningglory ([3]; 8 g ai/ha) | Plant response rating (scale 0 to 100), Waterhemp ([4]; 8 g ai/ha) | Foxtail, Giant plant response rating ([5]; 16 g ai/ha) | Plant response rating (scale 0 to 100), Soybean (soybean (Glycine max); 8 g ai/ha) | Crabgrass, Large plant response rating ([6]; 16 g ai/ha) | Crabgrass, Large plant response rating ([6]; 31 g ai/ha) | Blackgrass plant response rating ([9]; 31 g ai/ha) | Plant response rating, Blackgrass [9, 13] | Plant response rating, Barnyardgrass [10, 13]
0: Plant response rating (scale 0 to 100), Corn (corn (Zea mays); 8 g ai/ha) | Plant response rating (scale 0 to 100), Foxtail, Giant ([5]; 8 g ai/ha) | Plant response rating (scale 0 to 100), Crabgrass, Large ([6]; 8 g ai/ha) | Plant response rating (scale 0 to 100), Velvetleaf ([7]; 8 g ai/ha) | Plant response rating (scale 0 to 100), Ryegrass, Italian ([8]; 8 g ai/ha) | Ryegrass, Italian plant response rating [8, 14] | Plant response rating, Ryegrass, Italian [8, 13] | Plant response rating (scale 0 to 100), Blackgrass ([9]; 8 g ai/ha) | Blackgrass plant response rating ([9]; 16 g ai/ha) | Plant response rating (scale 0 to 100), Barnyardgrass ([10]; 8 g ai/ha) | Barnyardgrass plant response rating ([10]; 16 g ai/ha) | Barnyardgrass plant response rating ([10]; 31 g ai/ha) | Ragweed plant response rating [11, 17] | Plant response rating, Ragweed [11, 18] | Ryegrass, Italian plant response rating [12, 17] | Plant response rating, Ryegrass, Italian [12, 18]
25: Soybean plant response rating (soybean (Glycine max); [14]) | Plant response rating, Velvetleaf [7, 13]
65: Plant response rating, Morningglory [3, 13]
75: Plant response rating, Pigweed [2, 13]
40: Plant response rating, Lambsquarters [1, 13] | Plant response rating, Kochia (kochia (Kochia scoparia); [18]) | Plant response rating, Ragweed [11, 16]
90: Plant response rating, Waterhemp [4, 13] | Plant response rating, Kochia (kochia (Kochia scoparia); [15]) | Plant response rating, Kochia (kochia (Kochia scoparia); [16])
60: Pigweed plant response rating [2, 14]
70: Waterhemp plant response rating [4, 14] | Plant response rating, Ryegrass, Italian [12, 16]
15: Plant response rating (scale 0 to 100), Pigweed ([2]; 8 g ai/ha) | Morningglory plant response rating [3, 14] | Velvetleaf plant response rating [7, 14]
10: Plant response rating (scale 0 to 100), Lambsquarters ([1]; 8 g ai/ha) | Foxtail, Giant plant response rating ([5]; 31 g ai/ha) | Plant response rating, Crabgrass, Large [6, 13]
20: Kochia plant response rating (kochia (Kochia scoparia); [17]) | Plant response rating, Ragweed [11, 15]
30: Plant response rating, Soybean (soybean (Glycine max); [13]) | Plant response rating, Ryegrass, Italian [12, 15]
